From publication PMC11336141
Ends that are not written are not given here.

Assays:
[1] = tested on: plasma glucose; conditions: compared with GLP-1; cited from earlier work
From the text: Another example of a doppelganger peptide with drug-like properties that targets glucose homeostasis is exendin-4, a glucagon-like peptide-1 (GLP-1) peptide derived from the salivary gland of the Gila monster, Heloderma suspectum. […] Following successful clinical trials, exendin-4 (exenatide) entered the market in 2005 as a first-in-class incretin-mimetic for the treatment of type 2 diabetes (T2D). Since then, several other GLP-1 analogs have been devel ...

[2] = target: zebrafish sstr2a, Tango construct (zebrafish (Danio rerio)) (UniProt E7FDL0)
[3] = target: zebrafish sstr2b, Tango construct (zebrafish (Danio rerio))
[4] = tested on: mock (pcDNA) transfected HEK293T cells; experiment: GoA dissociation in mock (pcDNA) transfected HEK293T cells; format: cell-based; conditions: Fig. S6B
Method: The following protocol was adopted from Masuho et al., 2015[33]. HEK293T cells were seeded onto 6-well plates at a density of 750,000 cells/well. […] 16 to 24 hours post-transfection, HEK293T cells were seeded onto white 96 well plate (PerkinElmer) coated with poly-L-lysine (PLL) at a density of 40,000 cells/well and were allowed to grow overnight. On the day of assay, cells were washed once with phosphate-based saline (PBS) and 80 µL of assay buffer which composed of PBS with 0.5 mM MgCl2 and 0.1% glucose, pH 7.4, were added onto each well. 10 µL of Nluc luciferase substrate furimazine (Promega) were added onto each well and incubated for 3 minutes.
Crude C. geographus venom was subjected to reversed-phase high performance liquid chromatography (RP-HPLC). Pools consisting of 5 adjacent fractions were then tested for their ability to induce GoA dissociation at the hSSTR2. […] Error bars represent means ± S.E.M. of only one technical experiment in duplicate.
Error bars represent means ± S.E.M. of only one technical experiment in duplicate.

[5] = tested on: perfused rat pancreas; experiment: Rat pancreas perfusion, glucagon output; parameters: species or system rat (Wistar); conditions: bolus 10 mM L-arginine at end of experiment
Method: Non-fasted rats were anesthetized by a subcutaneous injection of a balanced mix of hypnorm and midazolam (0.3 mL/100 g body weight). Rats were placed on a heated operating table (37 °C) and the abdomen were opened. Blood vessels were tied off before removing the large and small intestines, the stomach, and the spleen. Then, the kidneys were ligated. […] The perfusion buffer was a modified Krebs-Ringer bicarbonate buffer with 5% (w/v) dextran T-70 (Pharmacosmos, Holbaek, Denmark), 0.1% (w/v) BSA (fraction V), 3.5 mM glucose and 3 mM vamin (Fresenius Kabi, Copenhagen, Denmark), pH adjusted to 7.4. […] Once perfusion of the pancreas was established, a catheter was inserted in the vena portae to collect the venous effluent and the rat was sacrificed by perforation of the diaphragm. After a 30-minute equilibration period, samples were collected every minute for the duration of the protocol. […] 10 mM L-Arginine was used as a positive control. Collected samples were immediately transferred on ice and stored at −20 °C until hormone analysis. Glucagon, insulin, and somatostatin concentrations in venous effluents were quantified by use of validated in-house radioimmunoassays (RIA) as previously described[36] (see below). Statistical analysis were performed where appropriate using one-way analysis of variance (ANOVA) with Dunnett’s post-test. Statistical significance was taken as p < 0.05.
Glucagon concentration in perfusion samples were measured by a validated in-house RIAs using the 4305 antibody, which reacts with the C-terminal epitope of glucagon[36] and no other cleavage products of pro-glucagon. Insulin concentrations were measured with the 2006 antibody, which measures all isoforms of rat insulin. […] Assay sensitivity was <1 pmol/L ( < 5 pmol/L for insulin detection), allowing reliable measurements of increments of at least 25 fmol/min.
Data analysis were performed in GraphPad Prism (v.9.4.1). Statistical analysis were performed using two-way repeated measure analysis of variance (ANOVA) with Šidák test for isolated islets glucagon secretion and one-way repeated measure ANOVA with Dunnett's test for rat pancreas perfusion experiments. Statistical significance was taken as p < 0.05.

[6] = target: T1, human SSTR3 (Homo sapiens, UniProt P32745); experiment: PRESTO-Tango β-arrestin recruitment assay, hSSTR3; format: cell-based
T1 construct: Tango cassette (PRESTO-Tango template of Kroeze et al. 2015); Bryan Roth (Addgene) Addgene kit # 1000000068; host or cells: HTLA cells
T1 sequence (P32745 whole entry): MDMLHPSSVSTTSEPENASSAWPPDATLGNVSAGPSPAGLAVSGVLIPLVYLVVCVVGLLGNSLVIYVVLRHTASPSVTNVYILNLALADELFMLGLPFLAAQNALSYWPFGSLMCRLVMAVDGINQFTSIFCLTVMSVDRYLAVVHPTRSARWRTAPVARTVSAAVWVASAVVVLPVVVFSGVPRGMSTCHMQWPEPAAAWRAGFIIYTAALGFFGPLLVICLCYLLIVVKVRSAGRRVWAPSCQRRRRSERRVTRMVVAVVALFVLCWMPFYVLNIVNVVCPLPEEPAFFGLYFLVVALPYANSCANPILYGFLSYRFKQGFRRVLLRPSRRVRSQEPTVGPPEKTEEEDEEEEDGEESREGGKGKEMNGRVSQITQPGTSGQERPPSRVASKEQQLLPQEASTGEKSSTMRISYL
From the text: HTLA cells were given by Prof.
The assay was done as described in ref. [12].

[7] = target: T2, human SSTR2 (Gi1) (Homo sapiens, UniProt P30874); experiment: G protein activation (BRET dissociation) assay, Gi1 at hSSTR2; format: cell-based;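 also: percent of the maximal response to the reference somatostatin agonist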
T2 construct: host or cells: HEK293T cells
T2 sequence (P30874 whole entry): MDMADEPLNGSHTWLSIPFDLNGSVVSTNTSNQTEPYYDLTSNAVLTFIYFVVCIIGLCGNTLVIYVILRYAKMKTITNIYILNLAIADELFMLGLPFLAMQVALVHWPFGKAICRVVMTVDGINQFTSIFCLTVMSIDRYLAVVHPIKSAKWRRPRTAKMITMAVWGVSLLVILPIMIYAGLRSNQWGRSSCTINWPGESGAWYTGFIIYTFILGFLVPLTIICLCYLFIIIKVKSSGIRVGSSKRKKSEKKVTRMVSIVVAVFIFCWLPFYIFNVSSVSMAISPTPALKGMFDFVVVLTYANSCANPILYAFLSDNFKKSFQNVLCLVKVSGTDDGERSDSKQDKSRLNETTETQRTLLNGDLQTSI
Method: (§1) HEK293T cells were seeded onto 6-well plates at a density of 750,000 cells/well. […] 16 to 24 hours post-transfection, HEK293T cells were seeded onto white 96 well plate (PerkinElmer) coated with poly-L-lysine (PLL) at a density of 40,000 cells/well and were allowed to grow overnight. On the day of assay, cells were washed once with phosphate-based saline (PBS) and 80 µL of assay buffer which composed of PBS with 0.5 mM MgCl2 and 0.1% glucose, pH 7.4, were added onto each well. 10 µL of Nluc luciferase substrate furimazine (Promega) were added onto each well and incubated for 3 minutes.
(§2) The net BRET ratio was determined by subtracting the BRET ratio of drugs with the BRET ratio of vehicle control. Net BRET ratio over time was then plotted using GraphPad Prism (v.9.4.1), and the area-under-curve of net BRET ratio over time course for each ligand concentration tested were then determined and plotted against log(concentration) of drugs tested. […] Concentration response curves were fitted with a 4-parameter logistic Eq. (1) using GraphPad Prism (v.9.4.1):1 Y=Emin+(Emax−Emin)/1+10^logEC50−X×Hillslope

[8] = target: T3, human SSTR2 (Gi2) (Homo sapiens, UniProt P30874); experiment: G protein activation (BRET dissociation) assay, Gi2 at hSSTR2; format: cell-based;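 also: percent of the maximal response to the reference somatostatin agonist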
T3 construct: host or cells: HEK293T cells
T3 sequence (P30874 whole entry): as above
Method: as §1, §2

[9] = target: T4, human SSTR2 (Gi3) (Homo sapiens, UniProt P30874); experiment: G protein activation (BRET dissociation) assay, Gi3 at hSSTR2; format: cell-based;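 also: percent of the maximal response to the reference somatostatin agonist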
T4 construct: host or cells: HEK293T cells
T4 sequence (P30874 whole entry): as above
Method: as §1, §2

[10] = target: T5, human SSTR2 (GoB) (Homo sapiens, UniProt P30874); experiment: G protein activation (BRET dissociation) assay, GoB at hSSTR2; format: cell-based;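 also: percent of the maximal response to the reference somatostatin agonist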
T5 construct: host or cells: HEK293T cells
T5 sequence (P30874 whole entry): as above
Method: as §1, §2

[11] = target: human SSTR2 (Homo sapiens, UniProt P30874); experiment: PRESTO-Tango β-arrestin recruitment assay, hSSTR2; conditions: read-out: Emax ± S.E.M., Table S1; % of maximal response relative to SS-14
human SSTR2, sequence (P30874 whole entry): as above
Method: HTLA cells were given by Prof. Bryan Roth (University of North Carolina, Chapel Hill, US) and were maintained in Dulbecco’s modified Eagle’s medium (DMEM) supplemented with 10% Fetal Bovine Serum (FBS) (Biowest) and 100 U/mL penicillin and 100 µg/mL streptomycin at 37 °C in a humidified incubator supplemented with 5% CO2. Constant selective pressure for tTA-dependent luciferase reporter and a β-arrestin 2 tobacco etch virus protease fusion gene were maintained with the addition of 100 µg/mL hygromycin B and 2 µg/ml puromycin (Tango growth medium).
Briefly, HTLA cells (1 million cells/well) were seeded in 6-well plates in Tango growth medium, and incubated overnight. On day 2, medium was changed to Tango growth medium without hygromycin B and puromycin. Cells were then transfected using Polyfect (Qiagen) according to manufacturer’s protocol. On day 3, 15,000 cells in 40 µL DMEM supplemented with 1% dialyzed FBS (Tango assay medium) per well were seeded in poly-D-lysine-coated white clear-bottom 384 well plates (Corning) and incubated overnight. On day 4, the Tango assay medium was changed and 10 µL of each of the peptide was added at 5x final concentration. The peptides were resuspended in HBSS with 20 mM HEPES, 1 mM of CaCl2, 1 mM of MgCl2, pH adjusted to 7.4 with 1 M NaOH (Tango assay buffer), which was supplemented with 0.1% BSA (Tango ligand buffer). After overnight incubation, on day 5, the medium and the compounds were removed from the cells and 20 µL of 1:20 dilution of BrightGlo (Promega) in Tango assay buffer supplemented with 0.01% pluronic F68 was added to the cells. Plates were incubated for 20 minutes in the dark at room temperature. Luminescence was measured on a Molecular Devices SpectraMax iD5 (Molecular Devices) with each well integrated for 1 second.

[12] = target: human SSTR2 (GoA) (Homo sapiens, UniProt P30874); experiment: G protein activation (BRET dissociation) assay, GoA at hSSTR2; conditions: read-out: Emax ± S.E.M.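 Also: percent of the maximal response to the reference somatostatin agonist.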
human SSTR2 (GoA), sequence (P30874 whole entry): as above
Method: as §1, §2

Q: Which results are given for exendin-4?
A: in vivo half-life in words [1]: significantly longer in vivo half-life than GLP-1; potency in lowering plasma glucose in words [1]: much greater potency in lowering plasma glucose

Q: With “Somatostatin-14 (from UniProt P61278 103-116) (peptide)” as the compound, how does the EC50, PRESTO-Tango β-arrestin recruitment assay [2] read?
A: 28.6 nM

Q: And the EC50, PRESTO-Tango β-arrestin recruitment assay [3]?
A: 132 nM

Q: Which “pcDNA/GoA response, Mean” value ([4]; at pEC20, data row 1) does the source give for “SST-14 (AGCKNFFWKTFTSC; not fully specified (bridges); ends and bridges not checked; UniProt P61278 103-116, looked up)” here?
A: 0.005611

Q: What about the “pcDNA/GoA response, Mean” value ([4]; at pEC20, data row 2) of the same compound?
A: 0.02323

Q: And the “pcDNA/GoA response, Mean” value ([4]; at pEC20, data row 3)?
A: 0.002971

Q: What about the “pcDNA/GoA response, Mean” value ([4]; at pEC50, data row 1) of the same compound?
A: 0

Q: What about the “pcDNA/GoA response, Mean” value ([4]; at pEC50, data row 2) of the same compound?
A: 0.0008161

Q: What about the “pcDNA/GoA response, Mean” value ([4]; at pEC50, data row 3) of the same compound?
A: 0

Q: Which “effect on glucagon levels (positive control)” value [5] does the source give for `N=C(N)NCCC[C@H](N)C(=O)O` [L-arginine, reference compound] here?
A: revert glucagon levels

Q: What does the source list for `C[C@@H](O)[C@@H]1NC(=O)[C@H](CCCCN)NC(=O)[C@@H](Cc2c[nH]c3ccccc23)NC(=O)[C@H](Cc2ccccc2)NC(=O)[C@@H](NC(=O)[C@H](N)Cc2ccccc2)CSSC[C@@H](C(=O)N[C@H](CO)[C@@H](C)O)NC1=O` [Octreotide, octreotide, reference compound]?
A: Emax [6]: 108 ± 13.4%; Emax [7]: 84.2 ± 4.44%; Emax [8]: 64 ± 2.97%; Emax [9]: 77.5 ± 3.67%; Emax [10]: 101 ± 2.64%; Emax [11]: 94 ± 1.4%; Emax [12]: 96.2 ± 4.77%
